Measured values reported in US12180220B2, “Heteroaryl modulators of RAS GTPase” (Tosk, Inc., priority 2020, dated 2024).

Test system: SW620 Cell Lines
Assay: Cell proliferation / cytotoxicity assay (CellTiter-Glo 2.0)
Type: cell-based
Conditions: Homo sapiens, SW-620; 72 hours incubation, luminescence (CellTiter-Glo 2.0), 2-fold dilutions starting at 50 μM
Method: Compounds are assayed for inhibition of cell proliferation and killing cancer cells. Cytotoxicity assays are conducted according to the following general procedure. […] cells (ATCC CCL-227) are maintained in DMEM Low Glucose (Corning 10-014-CV) media supplemented with 10% fetal bovine serum and 1% PenStrep and grown at 37° C. in 5% CO2. Cells are plated into 96 well flat bottom plates (2 million/plate, ˜20,000/well, 200 μL media/well). The cells are allowed to settle and adhere to the plate bottom overnight. Compounds are diluted in media from a 10 mM stock solution starting at 50 μM, using 2-fold dilutions, in a column in a 96-well plate. Media is removed from the plate containing cells and replaced with media containing diluted compounds. Plates are incubated 72 hours at 37° C. in 5% CO2. Plates are allowed to come to room temperature and 100 μL CellTiter-Glo 2.0 reagent (Promega, G924C) is added at room temperature. Plates are shaken for 2 minutes, then allowed to stand for 15 minutes. Luminescence is read with FLx800 (BioTek Instruments). Data is plotted with GraphPad Prizm 8.0.

| SMILES | IC50 |
| --- | --- |
| Cc1nc(N[C@H]2CC[C@@H](NC(=O)OC(C)(C)C)CC2)nc2ccc(-c3c(Cl)cnc4c3OCCO4)cc12 [Compound 10A] | < 5 µM |
| Cc1ccc2ccc(F)c(-c3ccc4nc(NC5CCN(C(=O)OC(C)C)CC5)nc(C)c4c3)c2n1 [Compound 2C] | 5 to 10 µM |
| Cc1nc(N[C@@H]2CCN(C(=O)OC(C)(C)C)[C@@H](C)C2)nc2ccc(-c3ccnc4c3OCCO4)cc12 [Compound 1A] | < 5 µM |
| Cc1nc(N[C@H]2CC[C@H](NC(=O)OC(C)(C)C)CC2)nc2ccc(-c3cccc4c3CCCC4)cc12 [Compound 7B] | 5 to 10 µM |
| Cc1nc(N[C@H]2CC[C@@H](NC(=O)OC(C)(C)C)CC2)nc2ccc(-c3cccc4c3CCCC4)cc12 [Compound 6B] | 5 to 10 µM |
| Cc1nc(N[C@H]2CC[C@H](NC(=O)OC(C)(C)C)CC2)nc2ccc(-c3ccnc4c3OCCO4)cc12 [Compound 4A] | < 5 µM |
| Cc1nc(N[C@H]2CC[C@@H](NC(=O)OC(C)(C)C)CC2)nc2ccc(-c3cc[n+]([O-])c4c3OCCO4)cc12 [Compound 12A] | 5 to 10 µM |
| Cc1ccc2ccc(F)c(-c3ccc4nc(NC5CCN(C(=O)OC(C)(C)C)CC5)nc(C)c4c3)c2n1 [Compound 1C] | < 5 µM |
| Cc1nc(N[C@H]2CCC[C@@H](NC(=O)OC(C)(C)C)C2)nc2ccc(-c3ccnc4c3OCCO4)cc12 [Compound 11A] | < 5 µM |
| Cc1nc(N[C@H]2CC[C@@H](NC(=O)OC(C)(C)C)CC2)nc2ccc(-c3ccnc4c3OCCO4)c(F)c12 [Compound 9A] | < 5 µM |
| Cc1ccc2ccc(F)c(-c3ccc4nc(N[C@H]5CC[C@@H](NC(=O)OC(C)(C)C)CC5)nc(C)c4c3)c2n1 [Compound 5C] | 5 to 10 µM |
| Cc1nc(N[C@H]2CC[C@@H](NC(=O)OC(C)(C)C)CC2)nc2ccc(-c3ccnc4c3OCCO4)cc12 [Compound 3A] | < 5 µM |
| Cc1nc(N[C@H]2CC[C@@H](NC3Cc4cccc(Cl)c4C3)CC2)nc2ccc(-c3ccnc4c3OCCO4)cc12 (stereo partly shown) [Compound 16A] | < 5 µM |
| Cc1nc(NC2CCN(C(=O)OC(C)(C)C)CC2)nc2ccc(-c3ccnc4ccccc34)cc12 [Compound 4C] | 5 to 10 µM |
| Cc1nc(N[C@H]2CCN(Cc3ccc(Cl)cc3)[C@@H](C)C2)nc2ccc(-c3ccnc4c3OCCO4)cc12 [Compound 15A] | < 5 µM |
| Cc1nc(NC2CCN(Cc3ccc(Cl)cc3)CC2)nc2ccc(-c3ccnc4c3OCCO4)cc12 [Compound 13A] | < 5 µM |
| Cc1nc(N[C@H]2CC[C@@H](NC(=O)OC(C)(C)C)CC2)nc2ccc(-c3cccc4c3OCC(=O)N4)cc12 [Compound 7C] | 5 to 10 µM |
| Cc1nc(O[C@H]2CC[C@@H](NC(=O)OC(C)(C)C)CC2)nc2ccc(-c3ccnc4c3OCCO4)cc12 [Compound 7A] | < 5 µM |
| Cc1nc(N[C@H]2CC[C@@H](NC(=O)c3ccc(Cl)cc3)CC2)nc2ccc(-c3ccnc4c3OCCO4)cc12 [Compound 8A] | < 5 µM |
| Cc1nc(N[C@@H]2CCN(C(=O)OC(C)(C)C)[C@H](C)C2)nc2ccc(-c3ccnc4c3OCCO4)cc12 [Compound 2A] | < 5 µM |
| Cc1nc(N[C@H]2CC[C@@H](C(=O)NC(C)C)CC2)nc2ccc(-c3cccc4c3OCCO4)cc12 [Compound 3B] | 5 to 10 µM |
| Cc1nc(NC2CCN(C(=O)c3ccc(Cl)cc3)CC2)nc2ccc(-c3ccnc4c3OCCO4)cc12 [Compound 14A] | < 5 µM |
| Cc1nc(NC2CCC(C(=O)NCc3ccc(Cl)cc3)CC2)nc2ccc(-c3cccc4c3OCCO4)cc12 (stereo not shown) [Compound 1B] | 5 to 10 µM |
| Cc1nc(N[C@H]2C[C@@H](NC(=O)OC(C)(C)C)C2)nc2ccc(-c3ccnc4c3OCCO4)cc12 [Compound 5A] | < 5 µM |
| Cc1nc(NC2CCN(C(=O)OC(C)(C)C)CC2)nc2ccc(-c3cccc4c3CCCC4)cc12 [Compound 5B] | 5 to 10 µM |
| Cc1nc(N[C@H]2C[C@H](NC(=O)OC(C)(C)C)C2)nc2ccc(-c3ccnc4c3OCCO4)cc12 [Compound 6A] | < 5 µM |
| Cc1nc(N[C@@H]2C[C@H]3CC[C@@H](C2)N3C(=O)c2ccc(Cl)cc2)nc2ccc(-c3ccnc4c3OCCO4)cc12 [Compound 8C] | < 5 µM |
| Cc1nc(N[C@H]2CC[C@@H](C(=O)NC3CCCCC3)CC2)nc2ccc(-c3cccc4c3OCCO4)cc12 [Compound 2B] | 5 to 10 µM |
